How the values were obtained:
S. mutans (ATCC #25175) [1] = assay: Inhibition of biofilm formation, crystal violet staining in saliva-coated 96-well plate; format: cell-based, Streptococcus mutans; settings: for Inhibition against biofilm formation (in words): 1 wt % glucose and 2 wt % Amadori compound, versus no Amadori compound; for Average absorbance (590 nm), amount of biofilm: test sample 1 wt % glucose and 2 wt % Amadori compound, co-incubated overnight at 37° C., lower absorbance = less biofilm
Experimental: In this Example, the ability of Amadori compound from the reaction of glucose with glycine to inhibit biofilm formation was investigated. A sample of cultured S. mutans (ATCC #25175) bacterium was grown in TSB medium overnight and subsequently centrifuged to form a pellet, and then the centrifuged S. mutans was re-suspended with TSB (trypticase soy broth) containing 1% glucose and adjusted to OD610=0.5 (a concentration with an optical reading of 0.5 at 610 nm for a 1-cm light path). A 50 microliter sample of the re-suspended S. mutans (OD610=0.5) was co-incubated with a 50 microliter test sample. The test sample contained 1 wt % of glucose and 2 wt % of Amadori compound from the reaction of glucose with glycine. The 100 μL total of the re-suspended S. mutans (OD610=0.5) and test sample, representing a clarified saliva, was co-incubated in a 96-well plate which was pre-coated with the clarified saliva and then left overnight at 37° C. After the co-incubation period, the supernatant liquid was aspirated from the well plate. A 50 microliter amount of crystal violet was added to each well and permitted to stain any biofilm for a period of 10 minutes. The well plate was washed with 100 μL of PBS. The amount of biofilm was determined by irradiating the well plate with electromagnetic radiation having a wavelength of 590 nm and measuring the absorbance. The lower the absorbance reading, the less the amount of biofilm detected.

S. mutans (ATCC #25175) [2] = assay: Inhibition of glucose metabolism with Streptococcus mutans (GC-MS of remaining α- and β-glucose); format: cell-based; settings: for Glucose inhibition (%) from Example 5: versus Comparative Example 1 (no Amadori compound)
Experimental: In this Example, the ability of Amadori compound from the reaction of glucose with glycine to inhibit glucose metabolism with Streptococcus mutans was investigated. A stock glucose solution of 0.4 wt % glucose dissolved in distilled water (0.4 g/100 mL) was prepared. A stock Amadori compound from the reaction of glucose with glycine solution of 4.0 wt % Amadori compound from the reaction of glucose with glycine dissolved in distilled water (0.4 g/10 mL) was prepared. A bacterial solution was prepared as follows: S. mutans (ATCC #25175) was cultured overnight in TSB medium and then the resultant bacterial pellet was re-suspended bacterial to OD610=0.8 (a concentration with an optical reading of 0.8 at 610 nm for a 1-cm light path) with phosphate buffered saline (pH=7.4) (PBS). In accordance with Example 5, a test sample comprising 1 mL of the bacterial solution, 0.5 mL of the Amadori compound from the reaction of glucose with glycine solution and 0.5 mL of the glucose solution was subjected to incubation at a temperature of 37° C., representing normal human body temperature. Then, 200 μL of the test sample was transferred into individual HPLC vials after 10 minutes of the incubation period, after 30 minutes of the incubation period, and after 60 minutes of the incubation period. The HPLC vial cap was used to seal the vial. Immediately the HPLC vials were placed in a 100° C. water bath for about 5 minutes to denaturize the enzymes. The resultant products were subjected to gas chromatography-mass spectrometry (GC-MS) testing and analysis to determine the amounts of the α- and β-glucose forms present. In Table 1, the number of counts during MS detection for each respective α- and β-glucose form detected in the respective sample at the respective incubation time is indicated, the number of counts representing the amount of the respective glucose form present. In Comparative Example 1, the testing of Example 5 was repeated but on a control sample comprising 1 mL of the bacterial solution, 0.5 mL of the glucose solution and 0.5 mL of deionized water. In other words, Comparative Example 1 had no Amadori compound from the reaction of glucose with glycine. The control sample was also subjected to incubation at a temperature of 37° C. for the same respective time periods.

[3] = 10 minutes incubation at 37° C., same sample
[4] = 30 minutes incubation at 37° C., same sample
[5] = 60 minutes incubation at 37° C., same sample

| SMILES | Inhibition against biofilm formation (in words) (S. mutans (ATCC #25175) [1]; listed as Amadori compound from the reaction of glucose with glutamic acid) | Average absorbance (590 nm), amount of biofilm (S. mutans (ATCC #25175) [1]) | α-glucose, number of counts during MS detection (S. mutans (ATCC #25175) [2]; 10 minutes incubation at 37° C., 1 mL bacterial solution + 0.5 mL 4.0 wt % compound solution + 0.5 mL 0.4 wt % glucose solution) | Total glucose (α + β), number of counts during MS detection (S. mutans (ATCC #25175) [2]; [3]) | β-glucose, number of counts during MS detection (S. mutans (ATCC #25175) [2]; [3]) | Glucose inhibition (%) from Example 5 (S. mutans (ATCC #25175) [2]; 10 minutes incubation) | Total glucose (α + β), number of counts during MS detection (S. mutans (ATCC #25175) [2]; [4]) | α-glucose, number of counts during MS detection (S. mutans (ATCC #25175) [2]; [4]) | β-glucose, number of counts during MS detection (S. mutans (ATCC #25175) [2]; [4]) | Glucose inhibition (%) from Example 5 (S. mutans (ATCC #25175) [2]; 30 minutes incubation) | Total glucose (α + β), number of counts during MS detection (S. mutans (ATCC #25175) [2]; [5]) | α-glucose, number of counts during MS detection (S. mutans (ATCC #25175) [2]; [5]) | β-glucose, number of counts during MS detection (S. mutans (ATCC #25175) [2]; [5]) | Glucose inhibition (%) from Example 5 (S. mutans (ATCC #25175) [2]; 60 minutes incubation) | Inhibition of glucose metabolization / degradation (in words) (S. mutans (ATCC #25175) [2]; co-incubated with S. mutans and glucose, versus no Amadori compound) | Inhibition of glucose metabolism (S. mutans (ATCC #25175) [2]; within the incubation time period of from 10 to 60 minutes) | Inhibition against biofilm formation (in words) (S. mutans (ATCC #25175) [1]; listed as Amadori compound from the reaction of glucose with glycine) | Inhibition against biofilm formation (in words) (S. mutans (ATCC #25175) [1]; listed as Amadori compound from the reaction of glucose with arginine) |
| --- | --- | --- | --- | --- | --- | --- | --- | --- | --- | --- | --- | --- | --- | --- | --- | --- | --- | --- |
| O=C(O)CC[C@H](NCC(=O)[C@@H](O)[C@H](O)[C@H](O)CO)C(=O)O [Example 4, N-(1-deoxy-fructos-1-yl)glutamic acid] | very strong inhibition | 0.5476 | – | – | – | – | – | – | – | – | – | – | – | – | – | – | – | – |
| O=C(O)CNCC(=O)[C@@H](O)[C@H](O)[C@H](O)CO [Example 1, N-(1-deoxy-fructos-1-yl)glycine] | – | 0.2885 | 1753564 counts | 5564912 counts | 3811348 counts | 56.4% | 6220880 counts | 1912144 counts | 4308736 counts | 59.9% | 5403991 counts | 1724203 counts | 3679788 counts | 70.1% | inhibited glucose metabolization | at least 56% | very strong inhibition | – |
| N=C(N)NCCC[C@H](NCC(=O)[C@@H](O)[C@H](O)[C@H](O)CO)C(=O)O [Example 2, N-(1-deoxy-fructos-1-yl) arginine] | – | 1.2808 | – | – | – | – | – | – | – | – | – | – | – | – | – | – | – | relatively weak inhibition |
